Test results published in ChEMBL document CHEMBL4024772, “Aniline-Based Inhibitors of Influenza H1N1 Virus Acting on Hemagglutinin-Mediated Fusion” (J Med Chem, 2018).

Tests used:
Assay in all cases: microbe, parasite or virus in culture
Format in all cases: functional, cell-based
Details in all cases: MDCK
Influenza A virus [1] = system: Influenza A virus
Influenza A virus [2] = system: Influenza A virus; remark: listed apart in the source
Influenza A virus [3] = system: Influenza A virus; remark: listed apart in the source

| SMILES | EC50 (Influenza A virus [1]) [µM] | EC50 (Influenza A virus [2]) [µM] | EC50 (Influenza A virus [3]) [µM] |
| --- | --- | --- | --- |
| CC(C)c1ccccc1NCCN1CCCCCC1 | > 100 | > 100 | 1.5 |
| CC(C)c1ccccc1NCCN1CCCCC1 | > 100 | > 100 | 2.3 |
| NC(=O)c1ncn([C@@H]2O[C@H](CO)[C@@H](O)[C@H]2O)n1 [RIBAVIRIN] |  |  | 15 |
